Results from PMC8708872, “Discovery of a Novel Template, 7-Substituted 7-Deaza-4′-Thioadenosine Derivatives as Multi-Kinase Inhibitors” (Pharmaceuticals, 2021).

Assays:
Assay in all cases: Kinome scan
Assay type in all cases: binding
Conditions in all cases: 1000 nM
ABL1-nonphosphorylated = target: T1, ABL1-nonphosphorylated (Homo sapiens, UniProt P00519)
T1 construct: purchased Eurofins DiscoverX Corporation
Method: (§1) The kinome scan assays were carried out at Eurofins DiscoverX Corporation. For kinome scan profiling of compound 1g, it was screened at 1μM against 96 kinases (N = 2 independent experiments). The results for binding interactions are reported as % inhibition, where higher values indicate strong affinity; see the Supporting Information, Table S1 for full kinome profile.

ABL1-phosphorylated = target: T2, ABL1-phosphorylated (Homo sapiens, UniProt P00519)
T2 construct: purchased Eurofins DiscoverX Corporation
Method: as §1

ADCK3 = target: T3, ADCK3 (Homo sapiens, UniProt Q8NI60)
T3 construct: purchased Eurofins DiscoverX Corporation
Method: as §1

AKT1 = target: T4, AKT1 (Homo sapiens, UniProt P31749)
T4 construct: purchased Eurofins DiscoverX Corporation
Method: as §1

AKT2 = target: T5, AKT2 (Homo sapiens, UniProt P31751)
T5 construct: purchased Eurofins DiscoverX Corporation
T5 sequence (P31751 whole entry): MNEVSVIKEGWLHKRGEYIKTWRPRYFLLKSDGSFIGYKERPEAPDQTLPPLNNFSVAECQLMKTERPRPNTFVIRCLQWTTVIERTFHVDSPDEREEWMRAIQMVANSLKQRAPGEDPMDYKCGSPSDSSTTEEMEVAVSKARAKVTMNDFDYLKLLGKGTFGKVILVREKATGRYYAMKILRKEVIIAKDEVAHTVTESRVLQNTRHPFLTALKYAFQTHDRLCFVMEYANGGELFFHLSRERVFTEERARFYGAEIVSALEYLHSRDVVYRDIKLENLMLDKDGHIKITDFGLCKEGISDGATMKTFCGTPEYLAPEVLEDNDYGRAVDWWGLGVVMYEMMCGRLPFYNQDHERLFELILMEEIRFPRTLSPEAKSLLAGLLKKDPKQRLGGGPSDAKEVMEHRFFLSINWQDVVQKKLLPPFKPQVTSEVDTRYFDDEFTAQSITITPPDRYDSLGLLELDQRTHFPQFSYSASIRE
Method: as §1

AURKA = target: T6, AURKA (Homo sapiens, UniProt O14965)
T6 construct: purchased Eurofins DiscoverX Corporation
Method: as §1

AURKB = target: T7, AURKB (Homo sapiens, UniProt Q96GD4)
T7 construct: purchased Eurofins DiscoverX Corporation
T7 sequence (Q96GD4 whole entry): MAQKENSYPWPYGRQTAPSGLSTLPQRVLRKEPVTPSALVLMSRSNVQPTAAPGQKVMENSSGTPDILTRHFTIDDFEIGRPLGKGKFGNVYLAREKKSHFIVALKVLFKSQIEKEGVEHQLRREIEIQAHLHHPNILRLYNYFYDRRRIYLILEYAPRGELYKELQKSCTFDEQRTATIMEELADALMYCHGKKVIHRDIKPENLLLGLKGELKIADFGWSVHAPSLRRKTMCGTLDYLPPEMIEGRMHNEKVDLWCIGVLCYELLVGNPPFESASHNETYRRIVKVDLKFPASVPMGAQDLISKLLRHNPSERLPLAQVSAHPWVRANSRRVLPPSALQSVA
Method: as §1

BMPR2 = target: T8, BMPR2 (Homo sapiens, UniProt Q13873)
T8 construct: purchased Eurofins DiscoverX Corporation
Method: as §1

BRAF = target: T9, BRAF (Homo sapiens, UniProt P15056)
T9 construct: purchased Eurofins DiscoverX Corporation
T9 sequence (P15056 whole entry): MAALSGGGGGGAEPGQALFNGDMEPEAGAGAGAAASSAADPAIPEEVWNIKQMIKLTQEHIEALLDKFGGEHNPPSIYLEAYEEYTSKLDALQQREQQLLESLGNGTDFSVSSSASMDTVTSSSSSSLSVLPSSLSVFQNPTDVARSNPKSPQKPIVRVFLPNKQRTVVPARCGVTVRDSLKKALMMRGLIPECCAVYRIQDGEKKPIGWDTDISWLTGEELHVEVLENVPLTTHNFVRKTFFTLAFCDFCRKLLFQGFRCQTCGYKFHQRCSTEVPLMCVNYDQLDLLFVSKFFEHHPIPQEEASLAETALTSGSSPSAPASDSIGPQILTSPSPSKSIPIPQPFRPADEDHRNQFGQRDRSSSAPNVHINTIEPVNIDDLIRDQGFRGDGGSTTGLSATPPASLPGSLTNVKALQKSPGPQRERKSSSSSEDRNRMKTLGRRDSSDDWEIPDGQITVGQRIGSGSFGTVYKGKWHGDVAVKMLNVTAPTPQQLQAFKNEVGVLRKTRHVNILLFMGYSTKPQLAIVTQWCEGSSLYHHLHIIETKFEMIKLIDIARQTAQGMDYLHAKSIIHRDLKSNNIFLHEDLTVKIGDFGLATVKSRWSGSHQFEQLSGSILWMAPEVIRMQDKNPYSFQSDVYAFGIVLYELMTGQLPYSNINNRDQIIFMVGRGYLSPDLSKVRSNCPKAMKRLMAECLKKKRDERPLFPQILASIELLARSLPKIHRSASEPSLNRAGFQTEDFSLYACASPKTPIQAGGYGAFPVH
Method: as §1

CDK11 = target: T10, CDK11 (Homo sapiens, UniProt Q9BWU1)
T10 construct: purchased Eurofins DiscoverX Corporation
Method: as §1

CDK7 = target: T11, CDK7 (Homo sapiens, UniProt P50613)
T11 construct: purchased Eurofins DiscoverX Corporation
T11 sequence (P50613 whole entry): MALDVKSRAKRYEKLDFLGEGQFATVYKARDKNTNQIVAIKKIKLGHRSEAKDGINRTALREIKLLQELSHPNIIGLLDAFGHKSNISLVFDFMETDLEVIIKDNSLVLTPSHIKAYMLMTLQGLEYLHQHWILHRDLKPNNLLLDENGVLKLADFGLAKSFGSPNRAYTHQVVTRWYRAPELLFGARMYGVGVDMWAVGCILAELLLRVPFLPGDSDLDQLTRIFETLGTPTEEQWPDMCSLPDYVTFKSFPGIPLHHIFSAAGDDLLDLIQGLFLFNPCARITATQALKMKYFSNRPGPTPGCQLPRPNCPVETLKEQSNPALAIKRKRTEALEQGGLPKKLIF
Method: as §1

CDK9 = target: T12, CDK9 (Homo sapiens, UniProt P50750)
T12 construct: purchased Eurofins DiscoverX Corporation
Method: as §1

EGFR = target: T13, EGFR (Homo sapiens, UniProt P00533)
T13 construct: purchased Eurofins DiscoverX Corporation
T13 sequence (P00533 25-1210): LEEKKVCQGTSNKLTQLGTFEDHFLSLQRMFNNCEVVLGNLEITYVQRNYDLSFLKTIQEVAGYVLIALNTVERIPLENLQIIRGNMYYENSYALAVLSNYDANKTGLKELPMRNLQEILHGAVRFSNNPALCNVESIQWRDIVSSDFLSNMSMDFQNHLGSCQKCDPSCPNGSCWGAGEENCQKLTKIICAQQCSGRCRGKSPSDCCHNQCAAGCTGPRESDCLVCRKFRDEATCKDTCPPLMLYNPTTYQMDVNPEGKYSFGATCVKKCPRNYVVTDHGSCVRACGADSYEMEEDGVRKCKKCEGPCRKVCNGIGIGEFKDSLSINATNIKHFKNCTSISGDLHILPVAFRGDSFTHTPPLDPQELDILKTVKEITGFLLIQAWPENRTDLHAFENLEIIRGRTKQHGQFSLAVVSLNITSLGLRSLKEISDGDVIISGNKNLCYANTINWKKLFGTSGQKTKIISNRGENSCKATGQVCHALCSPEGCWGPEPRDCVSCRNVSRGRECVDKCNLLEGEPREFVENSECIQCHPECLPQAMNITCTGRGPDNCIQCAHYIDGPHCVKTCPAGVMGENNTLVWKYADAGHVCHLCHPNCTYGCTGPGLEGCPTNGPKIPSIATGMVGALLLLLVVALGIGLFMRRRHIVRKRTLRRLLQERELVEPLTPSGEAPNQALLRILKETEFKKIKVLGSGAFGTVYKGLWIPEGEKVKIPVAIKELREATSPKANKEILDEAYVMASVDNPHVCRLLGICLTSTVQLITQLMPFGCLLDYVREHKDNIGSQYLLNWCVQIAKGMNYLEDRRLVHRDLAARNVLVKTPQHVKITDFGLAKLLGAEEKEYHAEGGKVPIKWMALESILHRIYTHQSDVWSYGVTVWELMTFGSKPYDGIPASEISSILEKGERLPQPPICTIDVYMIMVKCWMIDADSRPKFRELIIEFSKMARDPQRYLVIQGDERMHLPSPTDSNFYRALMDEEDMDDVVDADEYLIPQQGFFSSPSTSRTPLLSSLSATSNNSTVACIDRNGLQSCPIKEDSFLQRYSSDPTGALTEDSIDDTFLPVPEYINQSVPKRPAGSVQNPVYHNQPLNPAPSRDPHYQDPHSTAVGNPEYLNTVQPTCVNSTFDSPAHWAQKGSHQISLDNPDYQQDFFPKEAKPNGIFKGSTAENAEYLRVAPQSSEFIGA
Method: as §1

EPHA2 = target: T14, EPHA2 (Homo sapiens, UniProt P29317)
T14 construct: purchased Eurofins DiscoverX Corporation
Method: as §1

IGF1R = target: T15, IGF1R (Homo sapiens, UniProt P08069)
T15 construct: purchased Eurofins DiscoverX Corporation
Method: as §1

IKK-alpha = target: T16, IKK-alpha (Homo sapiens, UniProt O15111)
T16 construct: purchased Eurofins DiscoverX Corporation
Method: as §1

IKK-beta = target: T17, IKK-beta (Homo sapiens, UniProt O14920)
T17 construct: purchased Eurofins DiscoverX Corporation
Method: as §1

[1] = target: T18, JAK2(JH1domain-catalytic) (Homo sapiens, UniProt O60674)
T18 construct: JAK2(JH1domain-catalytic); purchased Eurofins DiscoverX Corporation
Method: as §1

JNK2 = target: T19, JNK2 (Homo sapiens, UniProt P45984)
T19 construct: purchased Eurofins DiscoverX Corporation
T19 sequence (P45984 whole entry): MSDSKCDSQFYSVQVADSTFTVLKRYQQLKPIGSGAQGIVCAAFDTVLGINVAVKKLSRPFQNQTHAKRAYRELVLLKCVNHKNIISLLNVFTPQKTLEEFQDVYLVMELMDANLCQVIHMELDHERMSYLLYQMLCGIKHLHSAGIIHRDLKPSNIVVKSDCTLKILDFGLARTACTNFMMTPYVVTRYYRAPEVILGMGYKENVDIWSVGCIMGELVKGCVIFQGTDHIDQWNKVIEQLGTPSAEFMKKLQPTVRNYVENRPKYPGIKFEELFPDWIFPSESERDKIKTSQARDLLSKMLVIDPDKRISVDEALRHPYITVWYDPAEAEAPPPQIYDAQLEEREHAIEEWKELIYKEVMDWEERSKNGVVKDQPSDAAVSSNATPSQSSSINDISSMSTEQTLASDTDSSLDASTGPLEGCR
Method: as §1

KIT(V559D,T670I) = target: T20, KIT(V559D,T670I) (Homo sapiens, UniProt P10721, T670I/V559D)
T20 construct: purchased Eurofins DiscoverX Corporation
Method: as §1

LKB1 = target: T21, LKB1 (Homo sapiens, UniProt Q15831)
T21 construct: purchased Eurofins DiscoverX Corporation
Method: as §1

MAPKAPK2 = target: T22, MAPKAPK2 (Homo sapiens, UniProt P49137)
T22 construct: purchased Eurofins DiscoverX Corporation
Method: as §1

MARK3 = target: T23, MARK3 (Homo sapiens, UniProt P27448)
T23 construct: purchased Eurofins DiscoverX Corporation
Method: as §1

MEK1 = target: T24, MEK1 (Homo sapiens, UniProt Q02750)
T24 construct: purchased Eurofins DiscoverX Corporation
Method: as §1

MET = target: T25, MET (Homo sapiens, UniProt P08581)
T25 construct: purchased Eurofins DiscoverX Corporation
Method: as §1

MLK1 = target: T26, MLK1 (Homo sapiens, UniProt P80192)
T26 construct: purchased Eurofins DiscoverX Corporation
Method: as §1

PAK2 = target: T27, PAK2 (Homo sapiens, UniProt Q13177)
T27 construct: purchased Eurofins DiscoverX Corporation
Method: as §1

PAK4 = target: T28, PAK4 (Homo sapiens, UniProt O96013)
T28 construct: purchased Eurofins DiscoverX Corporation
T28 sequence (O96013 whole entry): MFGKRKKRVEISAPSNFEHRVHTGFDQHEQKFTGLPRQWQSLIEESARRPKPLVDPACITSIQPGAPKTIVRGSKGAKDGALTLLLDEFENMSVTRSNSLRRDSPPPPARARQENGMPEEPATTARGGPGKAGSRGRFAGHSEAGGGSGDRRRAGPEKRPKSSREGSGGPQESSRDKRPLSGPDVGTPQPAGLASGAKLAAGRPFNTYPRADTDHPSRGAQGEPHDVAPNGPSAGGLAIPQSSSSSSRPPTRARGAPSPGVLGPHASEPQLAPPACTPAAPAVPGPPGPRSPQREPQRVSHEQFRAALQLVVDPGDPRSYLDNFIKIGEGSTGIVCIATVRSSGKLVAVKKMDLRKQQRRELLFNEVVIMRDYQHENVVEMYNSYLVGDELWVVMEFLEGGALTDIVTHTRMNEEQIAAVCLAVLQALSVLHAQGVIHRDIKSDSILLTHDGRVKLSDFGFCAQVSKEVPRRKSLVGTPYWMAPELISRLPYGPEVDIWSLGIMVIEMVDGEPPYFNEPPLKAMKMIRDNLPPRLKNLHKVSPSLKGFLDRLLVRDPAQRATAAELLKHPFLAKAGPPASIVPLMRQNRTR
Method: as §1

PDGFRA = target: T29, PDGFRA (Homo sapiens, UniProt P16234)
T29 construct: purchased Eurofins DiscoverX Corporation
Method: as §1

PIK3CA = target: T30, PIK3CA (Homo sapiens, UniProt P42336)
T30 construct: purchased Eurofins DiscoverX Corporation
Method: as §1

PIK3CG = target: T31, PIK3CG (Homo sapiens, UniProt P48736)
T31 construct: purchased Eurofins DiscoverX Corporation
Method: as §1

PIM2 = target: T32, PIM2 (Homo sapiens, UniProt Q9P1W9)
T32 construct: purchased Eurofins DiscoverX Corporation
T32 sequence (Q9P1W9 whole entry): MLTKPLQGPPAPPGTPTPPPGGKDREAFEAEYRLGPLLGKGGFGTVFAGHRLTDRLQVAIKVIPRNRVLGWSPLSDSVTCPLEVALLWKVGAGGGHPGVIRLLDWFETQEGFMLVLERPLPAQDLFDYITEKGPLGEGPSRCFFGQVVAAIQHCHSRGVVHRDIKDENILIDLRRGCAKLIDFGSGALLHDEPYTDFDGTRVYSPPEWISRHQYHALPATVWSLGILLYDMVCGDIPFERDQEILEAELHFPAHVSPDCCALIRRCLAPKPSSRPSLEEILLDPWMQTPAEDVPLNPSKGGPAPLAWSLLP
Method: as §1

PIM3 = target: T33, PIM3 (Homo sapiens, UniProt Q86V86)
T33 construct: purchased Eurofins DiscoverX Corporation
Method: as §1

PLK4 = target: T34, PLK4 (Homo sapiens, UniProt O00444)
T34 construct: purchased Eurofins DiscoverX Corporation
Method: as §1

RAF1 = target: T35, RAF1 (Homo sapiens, UniProt P04049)
T35 construct: purchased Eurofins DiscoverX Corporation
Method: as §1

RET = target: T36, RET (Homo sapiens, UniProt P07949)
T36 construct: purchased Eurofins DiscoverX Corporation
Method: as §1

SNARK = target: T37, SNARK (Homo sapiens, UniProt Q9H093)
T37 construct: purchased Eurofins DiscoverX Corporation
Method: as §1

SRPK3 = target: T38, SRPK3 (Homo sapiens, UniProt Q9UPE1)
T38 construct: purchased Eurofins DiscoverX Corporation
T38 sequence (Q9UPE1 whole entry): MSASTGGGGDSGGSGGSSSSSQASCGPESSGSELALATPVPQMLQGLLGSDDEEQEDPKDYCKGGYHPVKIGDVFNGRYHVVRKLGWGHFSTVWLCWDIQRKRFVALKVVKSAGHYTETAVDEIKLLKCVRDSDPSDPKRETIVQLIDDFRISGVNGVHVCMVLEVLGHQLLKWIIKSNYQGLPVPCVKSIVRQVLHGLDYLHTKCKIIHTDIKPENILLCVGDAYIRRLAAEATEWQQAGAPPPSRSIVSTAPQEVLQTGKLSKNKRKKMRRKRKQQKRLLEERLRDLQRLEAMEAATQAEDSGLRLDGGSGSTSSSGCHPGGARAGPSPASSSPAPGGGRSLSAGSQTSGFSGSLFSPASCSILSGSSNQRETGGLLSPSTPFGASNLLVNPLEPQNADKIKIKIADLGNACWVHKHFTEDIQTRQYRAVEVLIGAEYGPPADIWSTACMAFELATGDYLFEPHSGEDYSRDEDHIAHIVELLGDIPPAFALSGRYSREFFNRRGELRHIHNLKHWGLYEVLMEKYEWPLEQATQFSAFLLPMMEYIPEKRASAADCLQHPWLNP
Method: as §1

TGFBR1 = target: T39, TGFBR1 (Homo sapiens, UniProt P36897)
T39 construct: purchased Eurofins DiscoverX Corporation
Method: as §1

TIE2 = target: T40, TIE2 (Homo sapiens, UniProt Q02763)
T40 construct: purchased Eurofins DiscoverX Corporation
Method: as §1

TSSK1B = target: T41, TSSK1B (Homo sapiens, UniProt Q9BXA7)
T41 construct: purchased Eurofins DiscoverX Corporation
Method: as §1

[2] = target: T42, TYK2(JH1domain-catalytic) (Homo sapiens, UniProt P29597)
T42 construct: TYK2(JH1domain-catalytic); purchased Eurofins DiscoverX Corporation
Method: as §1

## C#Cc1cn([C@@H]2S[C@H](CO)[C@@H](O)[C@H]2O)c2ncnc(N)c12 [Compound 1g, (2R,3R,4S,5R)-2-(4-Amino-5-ethynyl-7H-pyrrolo[2,3-d]pyrimidin-7-yl)-5-(hydroxymethyl)tetrahydrothiophene-3,4-diol]
ABL1-nonphosphorylated
  inhibition at 1 µM: 39%
ABL1-phosphorylated
  inhibition at 1 µM: 35%
ADCK3
  inhibition at 1 µM: 8%
AKT1
  inhibition at 1 µM: 7%
AKT2
  inhibition at 1 µM: 4%
AURKA
  inhibition at 1 µM: 22%
AURKB
  inhibition at 1 µM: 0%
BMPR2
  inhibition at 1 µM: 1%
BRAF
  inhibition at 1 µM: 0%
CDK11
  inhibition at 1 µM: 72.1%
CDK7
  inhibition at 1 µM: 52.3%
CDK9
  inhibition at 1 µM: 4%
EGFR
  inhibition at 1 µM: 0%
EPHA2
  inhibition at 1 µM: 28%
IGF1R
  inhibition at 1 µM: 7%
IKK-alpha
  inhibition at 1 µM: 10%
IKK-beta
  inhibition at 1 µM: 0%
[1]
  inhibition at 1 µM: 35%
JNK2
  inhibition at 1 µM: 0%
KIT(V559D,T670I)
  inhibition at 1 µM: 17%
LKB1
  inhibition at 1 µM: 2%
MAPKAPK2
  inhibition at 1 µM: 0%
MARK3
  inhibition at 1 µM: 0%
MEK1
  inhibition at 1 µM: 74%
MET
  inhibition at 1 µM: 4%
MLK1
  inhibition at 1 µM: 7%
PAK2
  inhibition at 1 µM: 44%
PAK4
  inhibition at 1 µM: 50%
PDGFRA
  inhibition at 1 µM: 0%
PIK3CA
  inhibition at 1 µM: 7%
PIK3CG
  inhibition at 1 µM: 0%
PIM2
  inhibition at 1 µM: 3%
PIM3
  inhibition at 1 µM: 25%
PLK4
  inhibition at 1 µM: 0%
RAF1
  inhibition at 1 µM: 8%
RET
  inhibition at 1 µM: 11%
SNARK
  inhibition at 1 µM: 0%
SRPK3
  inhibition at 1 µM: 6%
TGFBR1
  inhibition at 1 µM: 11%
TIE2
  inhibition at 1 µM: 6%
TSSK1B
  inhibition at 1 µM: 16%
[2]
  inhibition at 1 µM: 70%
